Where no end group is shown, it is not given here.

This assay deals with T1, human PTHR1 (Homo sapiens, UniProt Q03431).
T1 construct: expressed in transfected cells
T1 sequence (Q03431 27-593): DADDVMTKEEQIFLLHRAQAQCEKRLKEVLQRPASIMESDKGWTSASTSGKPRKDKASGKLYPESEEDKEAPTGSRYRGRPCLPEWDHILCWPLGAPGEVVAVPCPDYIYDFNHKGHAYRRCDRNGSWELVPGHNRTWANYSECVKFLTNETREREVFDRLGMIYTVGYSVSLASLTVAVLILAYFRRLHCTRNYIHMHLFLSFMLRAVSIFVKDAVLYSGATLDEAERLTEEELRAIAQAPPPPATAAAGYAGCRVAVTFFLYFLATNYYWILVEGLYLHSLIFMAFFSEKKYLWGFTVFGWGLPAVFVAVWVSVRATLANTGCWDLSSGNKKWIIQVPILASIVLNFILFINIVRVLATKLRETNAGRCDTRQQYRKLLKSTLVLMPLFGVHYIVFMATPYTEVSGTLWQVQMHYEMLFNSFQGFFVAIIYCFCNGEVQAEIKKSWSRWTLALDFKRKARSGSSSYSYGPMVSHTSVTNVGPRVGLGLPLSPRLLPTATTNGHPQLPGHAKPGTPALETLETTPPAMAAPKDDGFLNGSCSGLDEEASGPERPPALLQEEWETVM
In words: GloSensor cAMP signaling assay in GP‐2.3 cells. The assay is classed as cell-based. As for the experimental part:
GP‐2.3 cells, an HEK‐293 cell‐ (ATCC CRL‐1573) derived cell line that stably expresses the luciferase‐based pGloSensor‐22F (GloSensor) cAMP reporter plasmid (Promega Corp., […], USA) along with the human PTHR1, were cultured in DMEM (Thermo Fisher Scientific, Waltham, MA, USA) supplemented with FBS (10%). Cells were seeded into white 96‐well plates for GloSensor cAMP assays, and used for assay 2 to 3 days after the monolayer became confluent.16 UGS‐56 cells were derived from the UMR106 rat osteoblastic cell line by stably transfecting the cells to express the GloSensor‐cAMP reporter. B64 cells are a derivative of the porcine kidney cell line, LLC‐PK1 that stably expresses the human PTHR1. COS‐7 cells (ATCC CRL‐1661) were seeded into 10‐cm dishes and transiently transfected to express the human PTHR1 with or without a high‐affinity, negative‐dominant Gαs subunit; 2 days after transfection, the cells were harvested for membrane preparations.13 All transfections were performed using the Fugene HD reagent (Promega Corp.).
Changes in cAMP levels were assessed in intact GP‐2.3 or UGS‐56 cells via the (GloSensor) cAMP reporter. The intact cells in white 96‐well plates were preloaded with luciferin in CO2‐independent culture media (Thermo Fisher) for 20 min at room temperature, then treated with a test ligand diluted in the same media and placed into a Envision plate reader (PerkinElmer, Waltham, MA, USA) for an additional 30 min, during which time cAMP‐dependent luminescence was measured at 2‐min intervals (ligand‐on phase). […] For washout responses, the cells were treated as above, and after the ligand‐on phase, the plate was removed from the plate reader, the cells were rinsed with media, then fresh media containing only luciferin was added and luminescence was measured for an additional 90 min (washout phase). EC50 values were determined using the 4‐parameter sigmoidal dose–response equation in Prism 8.0 (GraphPad Software, Inc., La Jolla, CA, USA).
The cells were then removed from the plate reader, rinsed twice with media to remove unbound ligand, and then fresh media containing luciferin but lacking ligand was added and luminescence was assessed for additional 90 min (Ligand wash‐out phase). Data are means (± SEM) of four experiments, each performed in triplicate. Figure S2. […] Panels A‐C represent three separate experiments. […] Figure S3. […] Serum and urine samples obtained from the TPTX and sham control rats of the two‐week daily‐administration experiment shown in Figure 4 were analyzed by ELISA for the indicated markers. A) serum 1,25(OH)2Vitamin‐D3. B) urinary deoxypyridinoline (DpD)/Cre. C) serum FGF23. […] Serum and urine samples obtained from the TPTX and sham control rats of the two‐week daily‐administration experiment shown in Figure 4 were analyzed for total inorganic phosphorus (Pi). […] Figure S5. […] B) The same peptides were assessed at a concentration of 3 nM for the capacity to stimulate cAMP formation in HKRK‐B64 cells (LLC‐PK1 cells stably expressing the hPTHR1, cAMP measured by RIA). […] Data in A and B are means (±SEM) of three experiments, each performed in triplicate or quadruplicate. […] D) The same analogs as in C were assessed at a 3.0 nM concentration for the capacity to stimulate cAMP formation in HKRK‐B64 cells. Data are means (±SEM) of three experiments, each performed in duplicate. […] Data are means (±SEM) of duplicate determinations of a single experiment representative of three others. Click here for additional data file.

On to “AVAEIQLMHQRAKWIQDLRRRFFLHHLIAEIHTAEI [M‐PTH(1‐14)/PTHrP(15‐36), [Ala^1,3,12,Gln^10,Arg^11,Trp^14]‐PTH(1‐14)/PTHrP(15–36)]”, for which the Emax (usually the size of the effect at its maximum, as opposed to the concentration needed) came out at 105 ± 4%.
